{"source": "paper PMC11956013", "about": "“Structure–Activity Relationships and Evaluation of 2-(Heteroaryl-cycloalkyl)-1H-indoles as Tauopathy Positron Emission Tomography Radiotracers” (Journal of Medicinal Chemistry, 2025)", "key": {"human 5-HT2B": {"target": "T1, human 5-HT2B (Homo sapiens, UniProt P41595)", "T1 construct": "purchased Eurofins (contract screening, CNS SafetyScreen panel)", "T1 sequence (P41595 whole entry)": "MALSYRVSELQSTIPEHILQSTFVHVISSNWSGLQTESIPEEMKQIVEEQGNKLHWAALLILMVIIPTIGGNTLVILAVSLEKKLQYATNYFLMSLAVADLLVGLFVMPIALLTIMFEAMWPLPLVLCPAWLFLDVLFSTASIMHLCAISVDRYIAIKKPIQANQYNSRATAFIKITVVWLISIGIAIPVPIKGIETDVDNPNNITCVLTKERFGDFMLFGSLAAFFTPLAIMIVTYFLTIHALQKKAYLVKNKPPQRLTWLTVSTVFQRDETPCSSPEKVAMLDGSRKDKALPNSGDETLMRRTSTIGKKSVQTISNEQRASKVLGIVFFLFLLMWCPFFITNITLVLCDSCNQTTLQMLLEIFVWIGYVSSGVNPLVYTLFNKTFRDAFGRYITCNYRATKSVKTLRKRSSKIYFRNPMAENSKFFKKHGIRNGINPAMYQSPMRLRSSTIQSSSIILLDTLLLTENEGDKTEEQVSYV", "test": "Eurofins CNS SafetyScreen panel: 5-HT2B (vs ± DOI)", "format": "binding"}, "5-HT2A (h)": {"target": "T2, 5-HT2A (h) (Homo sapiens, UniProt P28223)", "T2 construct": "purchased Eurofins (contract screening, CNS SafetyScreen panel)", "T2 sequence (P28223 whole entry)": "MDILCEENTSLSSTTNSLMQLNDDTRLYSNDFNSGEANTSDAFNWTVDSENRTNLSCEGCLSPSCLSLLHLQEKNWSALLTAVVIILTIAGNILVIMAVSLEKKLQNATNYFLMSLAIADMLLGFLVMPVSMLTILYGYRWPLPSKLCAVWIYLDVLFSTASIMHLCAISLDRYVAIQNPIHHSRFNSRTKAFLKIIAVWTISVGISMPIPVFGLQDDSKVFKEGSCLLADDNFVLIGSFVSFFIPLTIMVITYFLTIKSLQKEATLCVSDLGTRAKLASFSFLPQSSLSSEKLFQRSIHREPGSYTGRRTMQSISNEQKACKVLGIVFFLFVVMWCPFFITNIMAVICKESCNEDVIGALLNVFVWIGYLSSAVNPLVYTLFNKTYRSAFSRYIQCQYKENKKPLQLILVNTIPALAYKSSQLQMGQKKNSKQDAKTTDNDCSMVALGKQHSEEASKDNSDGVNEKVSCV", "test": "Eurofins panel: 5-HT2A (h) (agonist radioligand)", "format": "binding", "conditions": "1.0E-05 M; 5-HT2A (h) (agonist radioligand)"}, "PDE4D2 (h)": {"target": "T3, PDE4D2 (h) (Homo sapiens, UniProt Q08499)", "T3 construct": "purchased Eurofins (CNS SafetyScreen panel, contract assay)", "T3 sequence (Q08499 303-809 limits assumed)": "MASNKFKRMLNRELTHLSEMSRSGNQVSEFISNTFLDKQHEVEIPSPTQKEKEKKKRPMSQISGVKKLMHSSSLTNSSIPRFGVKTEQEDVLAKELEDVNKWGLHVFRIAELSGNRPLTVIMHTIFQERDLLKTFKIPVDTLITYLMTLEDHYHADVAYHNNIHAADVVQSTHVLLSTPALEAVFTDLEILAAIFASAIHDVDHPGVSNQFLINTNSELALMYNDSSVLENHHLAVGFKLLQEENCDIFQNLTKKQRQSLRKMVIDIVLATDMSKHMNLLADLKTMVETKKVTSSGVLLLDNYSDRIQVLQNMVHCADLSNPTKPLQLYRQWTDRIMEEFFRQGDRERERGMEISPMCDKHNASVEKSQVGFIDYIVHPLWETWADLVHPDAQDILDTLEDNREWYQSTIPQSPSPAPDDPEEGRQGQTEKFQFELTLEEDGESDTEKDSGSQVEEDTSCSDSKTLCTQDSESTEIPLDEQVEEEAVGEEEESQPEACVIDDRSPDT", "test": "Eurofins panel: PDE4D2 (h)", "format": "biochemical", "conditions": "compound concentration 1.0E-05 M"}, "kainate": {"system": "kainate", "test": "kainate (agonist radioligand), Eurofins assay 65", "conditions": "Specific binding; 1.0E-05 M"}, "[1]": {"target": "human monoamine oxidase-B (MAO-B) (Homo sapiens, UniProt P27338)"}, "OX1 (h)": {"target": "OX1 (h) (Homo sapiens, UniProt O43613)", "conditions": "compound concentration 1.0E-05 M"}, "A2A (h)": {"target": "A2A (h) (Homo sapiens, UniProt P29274)", "conditions": "1.0E-05 M; A2A (h) (agonist radioligand)"}, "[2]": {"system": "sigma (non-selective) (h)", "conditions": "compound concentration 1.0E-05 M"}, "JNK1 (h)": {"target": "JNK1 (h) (Homo sapiens, UniProt P45983)", "sequence (P45983 whole entry)": "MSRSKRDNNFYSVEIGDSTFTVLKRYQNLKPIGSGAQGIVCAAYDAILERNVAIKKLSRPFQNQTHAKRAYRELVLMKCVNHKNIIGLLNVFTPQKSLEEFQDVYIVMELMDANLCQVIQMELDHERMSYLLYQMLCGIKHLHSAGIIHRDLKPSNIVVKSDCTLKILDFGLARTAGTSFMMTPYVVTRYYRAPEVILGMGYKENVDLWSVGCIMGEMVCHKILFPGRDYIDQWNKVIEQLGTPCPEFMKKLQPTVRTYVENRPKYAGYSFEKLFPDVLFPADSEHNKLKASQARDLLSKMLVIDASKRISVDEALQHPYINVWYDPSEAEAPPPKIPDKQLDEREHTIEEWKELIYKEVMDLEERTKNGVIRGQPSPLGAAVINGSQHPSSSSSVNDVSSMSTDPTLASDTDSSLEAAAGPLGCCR", "conditions": "Enzymatic activity; 1.0E-05 M"}, "[3]": {"target": "carbonic anhydrase II (h) (Homo sapiens, UniProt P00918)", "conditions": "1.0E-05 M"}, "CCK1 (CCKA) (h)": {"target": "CCK1 (CCKA) (h) (Homo sapiens, UniProt P32238)", "test": "biochemical"}, "CCK2 (CCKB) (h)": {"target": "CCK2 (CCKB) (h) (Homo sapiens, UniProt P32239)", "sequence (P32239 whole entry)": "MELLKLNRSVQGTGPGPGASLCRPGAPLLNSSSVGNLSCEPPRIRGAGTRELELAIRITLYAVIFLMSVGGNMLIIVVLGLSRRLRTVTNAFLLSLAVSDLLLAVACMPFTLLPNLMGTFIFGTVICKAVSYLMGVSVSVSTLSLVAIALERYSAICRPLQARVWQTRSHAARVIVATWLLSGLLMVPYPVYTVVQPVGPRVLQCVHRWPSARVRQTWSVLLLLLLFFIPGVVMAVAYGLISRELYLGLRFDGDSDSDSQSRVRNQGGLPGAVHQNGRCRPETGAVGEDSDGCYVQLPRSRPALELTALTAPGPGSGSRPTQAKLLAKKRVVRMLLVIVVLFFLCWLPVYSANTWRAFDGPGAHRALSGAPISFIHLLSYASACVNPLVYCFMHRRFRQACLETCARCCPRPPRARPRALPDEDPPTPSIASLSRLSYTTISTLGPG", "test": "biochemical"}, "CGRP (h)": {"target": "CGRP (h) (Homo sapiens, UniProt O60894+Q16602)", "test": "biochemical"}, "delta (DOP) (h)": {"target": "delta (DOP) (h) (Homo sapiens, UniProt P41143)", "sequence (P41143 whole entry)": "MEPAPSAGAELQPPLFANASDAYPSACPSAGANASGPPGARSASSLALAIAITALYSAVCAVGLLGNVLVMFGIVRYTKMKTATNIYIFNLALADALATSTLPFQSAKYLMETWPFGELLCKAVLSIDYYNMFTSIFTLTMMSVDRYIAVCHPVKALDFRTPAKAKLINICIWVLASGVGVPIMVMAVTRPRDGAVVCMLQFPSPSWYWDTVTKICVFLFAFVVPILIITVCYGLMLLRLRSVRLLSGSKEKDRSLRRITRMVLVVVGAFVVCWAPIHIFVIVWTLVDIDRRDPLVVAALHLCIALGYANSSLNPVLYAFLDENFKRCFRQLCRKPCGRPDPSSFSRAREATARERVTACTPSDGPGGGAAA", "test": "biochemical"}, "H1 (h)": {"target": "H1 (h) (Homo sapiens, UniProt P35367)", "test": "biochemical"}, "OX2 (h)": {"target": "T4, OX2 (h) (Homo sapiens, UniProt O43614)", "T4 sequence (O43614 1-444)": "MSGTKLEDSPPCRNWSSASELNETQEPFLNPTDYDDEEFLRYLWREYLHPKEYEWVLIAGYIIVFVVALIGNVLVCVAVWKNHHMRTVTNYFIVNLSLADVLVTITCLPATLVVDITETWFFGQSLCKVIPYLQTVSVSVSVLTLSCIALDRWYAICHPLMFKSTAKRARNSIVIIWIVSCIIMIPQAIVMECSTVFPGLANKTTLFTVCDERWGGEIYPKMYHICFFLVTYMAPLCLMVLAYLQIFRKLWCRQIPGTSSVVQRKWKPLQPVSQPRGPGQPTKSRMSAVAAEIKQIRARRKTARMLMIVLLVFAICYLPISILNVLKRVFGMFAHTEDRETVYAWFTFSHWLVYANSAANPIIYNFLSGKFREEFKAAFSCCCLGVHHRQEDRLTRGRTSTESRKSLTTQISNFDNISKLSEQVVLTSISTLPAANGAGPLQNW", "test": "Eurofins panel: OX2 (h) (agonist radioligand)", "conditions": "compound concentration 1.0E-05 M"}, "mGluR5 (h)": {"target": "mGluR5 (h) (Homo sapiens, UniProt P41594)", "sequence (P41594 21-1212)": "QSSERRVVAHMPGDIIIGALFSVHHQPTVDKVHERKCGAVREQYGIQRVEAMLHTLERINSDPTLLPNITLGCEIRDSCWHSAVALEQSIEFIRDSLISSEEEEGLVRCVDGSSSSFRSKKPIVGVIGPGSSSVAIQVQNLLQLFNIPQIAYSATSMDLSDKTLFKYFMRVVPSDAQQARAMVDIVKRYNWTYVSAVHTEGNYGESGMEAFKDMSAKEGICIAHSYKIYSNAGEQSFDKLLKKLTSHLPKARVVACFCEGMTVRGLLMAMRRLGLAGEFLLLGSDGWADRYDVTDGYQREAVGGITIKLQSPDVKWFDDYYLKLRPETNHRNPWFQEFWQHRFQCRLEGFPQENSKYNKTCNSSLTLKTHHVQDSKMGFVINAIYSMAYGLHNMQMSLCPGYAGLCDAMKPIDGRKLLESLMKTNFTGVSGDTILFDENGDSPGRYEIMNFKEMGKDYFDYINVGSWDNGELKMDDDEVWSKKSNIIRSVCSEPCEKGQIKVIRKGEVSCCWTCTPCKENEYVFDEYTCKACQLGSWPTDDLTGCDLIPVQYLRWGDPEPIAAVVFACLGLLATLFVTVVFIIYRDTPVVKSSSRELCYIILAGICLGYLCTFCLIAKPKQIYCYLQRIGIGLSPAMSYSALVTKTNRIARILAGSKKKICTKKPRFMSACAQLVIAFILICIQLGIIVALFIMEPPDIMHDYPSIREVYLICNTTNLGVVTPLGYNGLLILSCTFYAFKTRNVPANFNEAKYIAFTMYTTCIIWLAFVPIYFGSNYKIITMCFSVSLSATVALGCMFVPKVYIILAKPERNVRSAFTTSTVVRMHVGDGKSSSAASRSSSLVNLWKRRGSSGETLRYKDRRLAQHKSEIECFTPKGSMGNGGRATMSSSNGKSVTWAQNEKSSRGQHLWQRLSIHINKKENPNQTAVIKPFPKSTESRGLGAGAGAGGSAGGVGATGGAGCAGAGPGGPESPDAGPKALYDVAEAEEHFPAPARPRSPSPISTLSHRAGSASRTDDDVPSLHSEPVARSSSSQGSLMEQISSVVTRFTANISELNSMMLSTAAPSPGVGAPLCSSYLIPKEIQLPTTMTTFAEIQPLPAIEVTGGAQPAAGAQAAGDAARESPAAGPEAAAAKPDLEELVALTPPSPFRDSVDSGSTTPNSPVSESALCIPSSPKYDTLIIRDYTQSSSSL", "test": "Eurofins panel: mGluR5 (h) (agonist radioligand)", "conditions": "1.0E-05 M; mGluR5 (h) (agonist radioligand)"}, "CB2 (h)": {"target": "CB2 (h) (Homo sapiens, UniProt P34972)", "test": "CB2 (h) (agonist radioligand), Eurofins assay 37"}, "A2B (h)": {"target": "A2B (h) (Homo sapiens, UniProt P29275)", "sequence (P29275 whole entry)": "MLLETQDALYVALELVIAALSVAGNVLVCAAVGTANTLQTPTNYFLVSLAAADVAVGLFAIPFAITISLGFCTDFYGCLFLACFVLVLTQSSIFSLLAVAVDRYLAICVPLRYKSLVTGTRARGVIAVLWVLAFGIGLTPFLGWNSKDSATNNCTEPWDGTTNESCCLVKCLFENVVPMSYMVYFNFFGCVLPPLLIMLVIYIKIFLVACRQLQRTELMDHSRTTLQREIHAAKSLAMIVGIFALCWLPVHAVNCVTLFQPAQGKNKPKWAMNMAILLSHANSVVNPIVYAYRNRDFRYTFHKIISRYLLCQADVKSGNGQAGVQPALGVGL", "test": "Eurofins panel: A2B (h) (antagonist radioligand)", "conditions": "1.0E-05 M"}, "D3 (h)": {"target": "D3 (h) (Homo sapiens, UniProt P35462)", "test": "D3 (h) (antagonist radioligand), Eurofins assay 48"}, "M4 (h)": {"target": "M4 (h) (Homo sapiens, UniProt P08173)", "sequence (P08173 whole entry)": "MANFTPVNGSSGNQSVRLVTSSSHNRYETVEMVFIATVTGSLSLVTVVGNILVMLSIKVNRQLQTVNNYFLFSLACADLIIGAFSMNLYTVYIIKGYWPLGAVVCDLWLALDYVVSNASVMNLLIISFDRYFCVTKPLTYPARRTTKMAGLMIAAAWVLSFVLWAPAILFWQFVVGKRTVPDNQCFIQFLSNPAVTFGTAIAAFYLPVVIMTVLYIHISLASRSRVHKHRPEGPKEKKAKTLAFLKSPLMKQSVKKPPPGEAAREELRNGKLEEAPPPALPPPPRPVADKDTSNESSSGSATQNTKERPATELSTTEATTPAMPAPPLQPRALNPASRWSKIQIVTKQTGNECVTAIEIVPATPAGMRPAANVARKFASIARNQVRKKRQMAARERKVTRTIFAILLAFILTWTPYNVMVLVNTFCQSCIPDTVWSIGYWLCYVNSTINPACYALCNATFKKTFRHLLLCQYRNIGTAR", "test": "M4 (h) (antagonist radioligand), Eurofins assay 96"}, "5-HT1B (h)": {"target": "5-HT1B (h) (Homo sapiens, UniProt P28222)", "test": "Eurofins panel: 5-HT1B (h) (antagonist radioligand)", "conditions": "1.0E-05 M"}, "alpha1A (h)": {"target": "T5, alpha1A (h) (Homo sapiens, UniProt P35348)", "T5 sequence (P35348 1-466)": "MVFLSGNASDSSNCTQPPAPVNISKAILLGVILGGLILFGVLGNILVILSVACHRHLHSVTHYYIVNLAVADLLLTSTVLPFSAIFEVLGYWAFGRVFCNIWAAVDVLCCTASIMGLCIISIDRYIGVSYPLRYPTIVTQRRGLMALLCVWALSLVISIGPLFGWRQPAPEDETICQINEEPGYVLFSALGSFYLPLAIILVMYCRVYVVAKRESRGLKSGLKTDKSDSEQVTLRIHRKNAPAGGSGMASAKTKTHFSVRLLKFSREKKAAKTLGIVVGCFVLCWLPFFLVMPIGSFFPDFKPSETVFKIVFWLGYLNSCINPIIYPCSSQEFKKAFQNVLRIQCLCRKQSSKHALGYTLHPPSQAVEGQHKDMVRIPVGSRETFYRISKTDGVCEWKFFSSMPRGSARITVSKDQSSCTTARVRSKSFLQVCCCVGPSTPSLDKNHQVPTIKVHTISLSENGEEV", "test": "Eurofins panel: alpha1A (h) (antagonist radioligand)", "conditions": "1.0E-05 M; alpha1A (h) (antagonist radioligand)"}, "[4]": {"target": "GABAA1 (h) (alpha1,beta2,gamma2) (Homo sapiens, UniProt P14867+P47870)", "test": "GABAA1 (h) (alpha1,beta2,gamma2) (agonist radioligand), Eurofins assay 3051"}}}
{"molecule": "Fc1nc(N2CCOCC2)ccc1-c1cc2ccccc2[nH]1", "note": "[Compound 75, 4-(6-Fluoro-5-(1H-indol-2-yl)pyridin-2-yl)morpholine]", "values": [{"measurement": "% Inhibition, Specific binding", "setting": "human 5-HT2B; 1.0E-05 M, 5-HT2B (h) (agonist radioligand)", "result": 44.5993, "unit": "%"}, {"measurement": "inhibition at human 5-HT2B (vs ± DOI)", "setting": "human 5-HT2B; 10-μM concentration", "result": 44.6, "unit": "%"}, {"measurement": "% Inhibition, Specific binding", "setting": "5-HT2A (h)", "result": 1.045, "unit": "%"}, {"measurement": "% Inhibition, Enzymatic activity", "setting": "PDE4D2 (h)", "result": "-7.60E+00", "unit": "%"}, {"measurement": "% Inhibition", "setting": "kainate", "result": 7.0556, "unit": "%"}, {"measurement": "inhibition at human MAO-B (vs deprenyl)", "setting": "[1]", "result": 61, "unit": "%"}, {"measurement": "% Inhibition, Specific binding", "setting": "OX1 (h)", "result": 6.092, "unit": "%"}, {"measurement": "% Inhibition, Specific binding", "setting": "A2A (h)", "result": 6.474, "unit": "%"}, {"measurement": "% Inhibition, Specific binding", "setting": "[2]", "result": "-4.77E+00", "unit": "%"}, {"measurement": "% Inhibition", "setting": "JNK1 (h)", "result": "-3.56E-01", "unit": "%"}, {"measurement": "% Inhibition, Enzymatic activity", "setting": "[3]", "result": "-2.68E+01", "unit": "%"}, {"measurement": "inhibition at 10 µM", "setting": "CCK1 (CCKA) (h)", "result": -78.7, "unit": "%"}, {"measurement": "inhibition at 10 µM", "setting": "CCK2 (CCKB) (h)", "result": 2.96, "unit": "%"}, {"measurement": "inhibition at 10 µM", "setting": "CGRP (h)", "result": -5.83, "unit": "%"}, {"measurement": "inhibition at 10 µM", "setting": "delta (DOP) (h)", "result": -13.7, "unit": "%"}, {"measurement": "inhibition at 10 µM", "setting": "H1 (h)", "result": -3.1, "unit": "%"}, {"measurement": "% Inhibition, Specific binding", "setting": "OX2 (h)", "result": 0.786, "unit": "%"}, {"measurement": "% Inhibition, Specific binding", "setting": "mGluR5 (h)", "result": "-1.20E+01", "unit": "%"}, {"measurement": "inhibition at 10 µM", "setting": "CB2 (h)", "result": -17.9, "unit": "%"}, {"measurement": "% Inhibition, Specific binding", "setting": "A2B (h)", "result": "-1.19E+01", "unit": "%"}, {"measurement": "inhibition at 10 µM", "setting": "D3 (h)", "result": -5.9, "unit": "%"}, {"measurement": "inhibition at 10 µM", "setting": "M4 (h)", "result": -20.6, "unit": "%"}, {"measurement": "% Inhibition, Specific binding", "setting": "5-HT1B (h)", "result": "-1.91E+01", "unit": "%"}, {"measurement": "% Inhibition, Specific binding", "setting": "alpha1A (h)", "result": 3.065, "unit": "%"}, {"measurement": "inhibition at 10 µM", "setting": "[4]", "result": 7.7, "unit": "%"}]}
